Results: patent publication US20170253607A1, “LONG-ACTING HIV PROTEASE INHIBITOR” (Shionogi & Co., Ltd., priority 2014, published 2017)

Assays:
[1] = Protein binding test (equilibrium dialysis, unbound ratio fu in serum); format: in vitro ADME; conditions: rat serum, equilibrium dialysis 24 hours, 37° C., 2 μg/mL
Summary of the method: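 Compound at 2 μg/mL in serum was dialysed against PBS for 24 hours at 37° C. Both sides were quantified by LC/MS/MS, and fu was taken as the PBS concentration divided by the serum concentration.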

HIV-1 PR = HIV-1 PR (Human immunodeficiency virus type 1 group M subtype B, UniProt P04585); assay: HIV-protease inhibitory activity assay (FRET peptide substrate); format: biochemical; conditions: Test Example 1
Summary of the method: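 Compounds were preincubated with HIV-1 PR (0.83 ng) at room temperature in pH 4.8 NaAc buffer (0.5 M NaCl, EDTA, DTT, Tween 20), then HiLyte Fluor 488/QXL 520 FRET peptide (2 μmol/L final) was added for 60 min. Fluorescence was read at 485/535 nm, and IC50 was fitted by four-parameter logistic regression.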

[2] = Evaluation of total body clearance (CLtot), intravenous administration; format: in vivo, Sprague-Dawley (SD); conditions: rat (SD), intravenous administration 0.5-10 mg/kg; CLtot = dose/AUC
Summary of the method: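 Compounds given as a single tail-vein injection at 0.5-10 mg/kg (n=2-3), dose varying by compound. Plasma sampled at scheduled times and measured by LC/MS/MS; CLtot derived as dose divided by AUC from pharmacokinetic analysis.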

Row | Structure (SMILES) | rat_fu [1] [%] | IC50 (HIV-1 PR) [nM] | rat_CLt [2] [mL/min/kg]
1 | COc1ccc(S(=O)(=O)N(CC(C)C)CC(O)C(Cc2ccc(N(C)Cc3cc(C(F)(F)F)ccc3-n3nc4c(c3C(=O)O)CC(C)(C)CC4)cc2)NC(=O)OC2COC3(C)OCCC23)cc1 (stereo not drawn) [Compound I-379] | <0.1 | 4.42 | 0.173
2 | COc1ccc(S(=O)(=O)N(CC(C)C)CC(O)C(Cc2ccc(SCc3ccccc3-c3sc4c(c3C(=O)O)CC(C)(C)CC4)cc2)NC(=O)OC2COC3(C)OCCC23)cc1 (stereo not drawn) [Compound I-380] | <0.1 | 5.51 | 0.702
3 | COc1ccc(S(=O)(=O)N(CC(C)C)CC(O)C(Cc2ccc(NCc3cnc4ccccc4c3-c3sc4c(c3C(=O)O)CC(C)(C)CC4)cc2)NC(=O)OC2COC3(C)OCCC23)cc1 (stereo not drawn) [Compound I-384] | <0.1 | 6.62 | 0.253
4 | COc1ccc(S(=O)(=O)N(CC(C)C)CC(O)C(Cc2ccc(CN3CCc4c(-c5sc6c(c5C(=O)O)CC(C)(C)CC6)cccc43)cc2)NC(=O)OC2COC3(C)OCCC23)cc1 (stereo not drawn) [Compound I-386] | <0.1 | 5.89 | 4.96
5 | COc1ccc(S(=O)(=O)N(CC(C)C)CC(O)C(Cc2ccc(CN3CCc4ccc(-c5sc6c(c5C(=O)O)CC(C)(C)CC6)cc4C3)cc2)NC(=O)OC2COC3(C)OCCC23)cc1 (stereo not drawn) [Compound I-389] | <0.1 | 1.79 | 14
6 | COc1ccc(S(=O)(=O)N(CC(C)C)CC(O)C(Cc2ccc(N(C)C3CN(c4ccc(-c5sc6c(c5C(=O)O)CC(C)(C)CC6)cc4)C3)cc2)NC(=O)OC2COC3(C)OCCC23)cc1 (stereo not drawn) [Compound I-391] | <0.1 | 3.94 | 10.3
7 | COc1ccc(S(=O)(=O)N(CC(C)C)C[C@@H](O)[C@H](Cc2ccc(NCc3ccccc3C(=O)Nc3sc4c(c3C(=O)O)CC(C)(C)CC4)cc2)NC(=O)O[C@H]2CO[C@@]3(C)OCC[C@@H]23)cc1 [Compound I-396] | <0.1 | 2.76 | 0.0572
8 | COc1ccc(S(=O)(=O)N(CC(C)C)CC(O)C(Cc2ccc(N(C)C3Cc4cccc(-c5sc6c(c5C(=O)O)CC(C)(C)CC6)c4C3)cc2)NC(=O)OC2COC3(C)OCCC23)cc1 (stereo not drawn) [Compound I-405] | <0.1 | 2.42 | 3.27
9 | COc1ccc(S(=O)(=O)N(CC(C)C)CC(O)C(Cc2ccc(N3CC(C)C(Oc4ccccc4-c4sc5c(c4C(=O)O)CC(C)(C)CC5)C3)cc2)NC(=O)OC2COC3(C)OCCC23)cc1 (stereo not drawn) [Compound I-406] | <0.1 | 1.89 | 4.61
10 | COc1ccc(S(=O)(=O)N(CC(C)C)CC(O)C(Cc2ccc(NCc3ncccc3-c3ccc(-c4sc5c(c4C(=O)O)CC(C)(C)CC5)cc3)cc2)NC(=O)OC2COC3(C)OCCC23)cc1 (stereo not drawn) [Compound I-415] | <0.1 | 2.55 | 0.66
11 | COc1ccc(S(=O)(=O)N(CC(C)C)CC(O)C(Cc2ccc(NCc3ccccc3-c3sc4c(c3C(=O)O)CC(C)(C)CC4(C)C)cc2)NC(=O)OC2COC3(C)OCCC23)cc1 (stereo not drawn) [Compound I-418] | <0.1 | 2.21 | 1.49
12 | COc1ccc(S(=O)(=O)N(CC(C)C)CC(O)C(Cc2ccccc2)NC(=O)OC2COC3(COC(=O)NCc4sc5c(c4C(=O)O)CC(C)(C)CC5)OCCC23)cc1 (stereo not drawn) [Compound I-780] | <0.1 | 1.64 | 2.23
13 | CC(C)CN(CC(O)C(Cc1ccccc1)NC(=O)OC1COC2(C)OCCC12)S(=O)(=O)c1ccc2nc(NCc3ccc(-c4sc5c(c4C(=O)O)CC(C)(C)CC5)cc3)sc2c1 (stereo not drawn) [Compound I-798] | <0.1 | 0.99 | 4.54
14 | COc1ccc(S(=O)(=O)N(CC(C)C)CC(O)C(Cc2ccc(OCc3ccccc3-n3nc4c(c3C(=O)O)CC(C)(C)CC4)cc2)NC(=O)OC2COC3OCCC23)cc1 (stereo not drawn) [Compound I-807] | <0.1 | 0.86 | 0.61
15 | COc1ccc(S(=O)(=O)N(CC(C)C)CC(O)C(Cc2ccc(OCc3ccccc3-c3sc(Cl)c(C4CCCCC4)c3C(=O)O)cc2)NC(=O)OC2COC3OCCC23)cc1 (stereo not drawn) [Compound I-825] | <0.1 | 1.02 | 5.22
16 | COc1ccc(S(=O)(=O)N(CC(C)C)CC(O)C(Cc2ccc(OCc3ccccc3-c3sc4c(c3C(=O)O)CC(C)(C)CC4)cc2)NC(=O)OC2COC3OCCC23)cc1 (stereo not drawn) [Compound I-826] | <0.1 | 1.18 | 0.823
17 | COc1ccc(S(=O)(=O)N(CC(C)C)CC(O)C(Cc2ccc(OCc3ncccc3-c3sc4c(c3C(=O)O)CC(C)(C)CC4)cc2)NC(=O)OC2COC3OCCC23)cc1 (stereo not drawn) [Compound I-827] | <0.1 | 0.81 | 4.21
18 | COc1ccc(S(=O)(=O)N(CC(C)C)CC(O)C(Cc2ccc(OCc3ccccc3-c3sc4c(c3C(=O)O)CCC4)cc2)NC(=O)OC2COC3OCCC23)cc1 (stereo not drawn) [Compound I-832] | <0.1 | 1.16 | 4.09
19 | Cc1cc(Oc2ccc(CC(NC(=O)OC3COC4OCCC34)C(O)CN(CC(C)C)S(=O)(=O)c3ccc4c(c3)OCO4)cc2)ccc1-c1sc2c(c1C(=O)O)CC(C)(C)CC2 (stereo not drawn) [Compound I-835] | <0.1 | 2.81 | 1.63
20 | COc1ccc(S(=O)(=O)N(CC(C)C)CC(O)C(Cc2ccc(Oc3ccc(-c4sc5c(c4C(=O)O)CC(C)(C)CC5)c(F)c3)cc2)NC(=O)OC2COC3OCCC23)cc1 (stereo not drawn) [Compound I-836] | <0.1 | 1.76 | 4.31
21 | COc1ccc(S(=O)(=O)N(CC(C)C)CC(O)C(Cc2ccc(OCc3ccccc3-c3ccc4c(c3)C(=O)C(c3ccc(F)cc3)C4=O)cc2)NC(=O)OC2COC3OCCC23)cc1 (stereo not drawn) [Compound I-841] | <0.1 | 2.21 | 2.38
22 | COc1ccc(S(=O)(=O)N(CC(C)C)CC(O)C(Cc2ccc(OCc3ccccc3-c3ccc(Oc4ccc(-c5c(O)c6ccc(Cl)cc6[nH]c5=O)cc4)cc3)cc2)NC(=O)OC2COC3OCCC23)cc1 (stereo not drawn) [Compound I-847] | <0.1 | 3.38 | 6
23 | COc1ccc(S(=O)(=O)N(CC(C)C)CC(O)C(Cc2ccc(NCc3ccc4ccccc4c3-c3sc4c(c3C(=O)O)CC(C)(C)CC4)cc2)NC(=O)OC2COC3OCCC23)cc1 (stereo not drawn) [Compound I-851] | <0.1 | 2.57 | 0.298
24 | COC(=O)NC(C(=O)NC(Cc1ccc(-c2sc3c(c2C(=O)O)CC(C)(C)CC3)cc1)C(O)CC(Cc1ccccc1F)C(=O)NC1c2cc(F)cc(Cl)c2OCC1O)C(C)(C)C (stereo not drawn) [Compound I-903] | <0.1 | 2.23 | 0.0436
25 | COc1ccc(S(=O)(=O)N(CC(C)C)C[C@@H](O)[C@H](Cc2ccc(OCc3ccccc3-c3sc4c(c3C(=O)O)CC(C)(C)CC4)cc2)NC(=O)OC2CO[C@H]3OC[C@H](OC)[C@@H]23)cc1 (stereo partly drawn) [Compound I-907] | <0.1 | 1.27 | 0.73
26 | COc1ccc(S(=O)(=O)N(CC(C)C)C[C@@H](O)[C@H](Cc2ccc(OCc3ccccc3-c3sc4c(c3C(=O)O)CC(C)(C)CC4)cc2)NC(=O)O[C@H]2CCO[C@H]3OCC[C@H]32)cc1 [Compound I-908] | <0.1 | 1.21 | 0.63
